Reference: patent US20100160226A1, “Y-RECEPTOR AGONISTS” (7TM PHARMA A/S, priority 2007, published 2010)

How the values were obtained:
human Y1 receptor = biological target: T1, human Y1 receptor (Homo sapiens, UniProt P25929); assay: Human Y1 receptor potency assay (inositol phosphate turnover); assay type: cell-based; details: COS-7 cells transfected with human Y1 receptor and Gqi5, read-out: hY1 EC50
T1 construct: expressed in transfected cells; host or cells: COS-7
T1 sequence (P25929 1-384): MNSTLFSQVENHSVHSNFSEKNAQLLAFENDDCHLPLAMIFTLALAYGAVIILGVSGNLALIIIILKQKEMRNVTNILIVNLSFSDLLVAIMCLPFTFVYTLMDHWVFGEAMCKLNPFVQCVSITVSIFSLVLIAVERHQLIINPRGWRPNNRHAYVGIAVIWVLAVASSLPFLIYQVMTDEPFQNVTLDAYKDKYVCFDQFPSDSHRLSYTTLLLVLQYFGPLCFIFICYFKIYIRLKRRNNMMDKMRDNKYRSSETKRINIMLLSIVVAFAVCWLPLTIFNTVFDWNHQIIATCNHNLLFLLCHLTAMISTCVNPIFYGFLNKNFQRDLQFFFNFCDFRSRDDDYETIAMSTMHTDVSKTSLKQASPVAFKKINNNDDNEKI
Procedure: Potency of the test compounds on the human Y2 receptor is determined by performing dose-response experiments in COS-7 cells transiently transfected with the human Y2 receptor as well as a promiscuous G protein, Gqi5 which ensures that the Y2 receptor couples through a Gq pathway leading to an increase in inositol phosphate turnover.
Cells are washed twice in buffer, 20 mM HEPES, pH 7.4, supplemented with 140 mM NaCl, 5 mM KCl, 1 mM MgSO4, 1 mM CaCl2, 10 mM glucose, 0.05% (w/v) bovine serum; and are incubated in 0.5 ml buffer supplemented with 10 mM LiCl at 37 C for 30 min. After stimulation with various concentrations of peptide for 45 min at 37 C, cells are extracted with 10% ice-cold perchloric acid followed by incubation on ice for 30 min. The resulting supernatants are neutralized with KOH in HEPES buffer, and the generated [3H]-inositol phosphate are purified on Bio-Rad AG 1-X8 anion-exchange resin and counted in a beta counter. Determinations are made in duplicates. EC50 values were calculated using a standard pharmacological data handling software, Prism 3.0 (graphPad Sofware, San Diego, USA).
Protocol as for the Y2 potency assay, except that human Y1-transformed COS-7 cells are used.

in vivo = assay: in vivo; parameters: species or system cyno monkeys; details: cynomolgus monkey
Description: PYY itself is know to be extremely emetic when administered peripherally, in fact PYY was discovered-for “the second time” -in 1989 as the biologically active entity in a chromatographic fraction of an intestinal extract causing dogs to vomit (Harding and McDonald 1989 Peptides 10: 21-24). […] It has also been reported that PYY3-36 can cause nausea when administered peripherally to human subjects ([…] press release 29th of June 2004). From a physiological point of view it appears logically that PYY-and its biologically active conversion product-which normally first is secreted in large amounts during a very large meal or when food is dumped into the lower intestine due to various surgical procedures, is able to cause emesis and vomiting to relieve the subject from a situation of overt overeating. […] This is surprising since [[…]]PP has a relatively high potency on the Y2 receptor for which PYY3-36 is totally selective. […] Apparently, the Y4 receptor activation-conceivably in the area postreama-prevents the emetic effect of the Y2 activation form the same compound. This property of a combined Y2-Y4 selective agonist is of great benefit for the treatment of obesity and associated conditions.

| Molecule | EC50 (human Y1 receptor) [nM] | level at time molar (in vivo) [nM] |
| --- | --- | --- |
| H-PLEPVYPGDNATPEQMAQYAADLRRYINTLTRQRY-NH2 [[Thr30, Gln34]hPP2-36] | > 1000 |  |
| H-LEPVYPGDNATPEQMAQYAADLRRYINMLTRQRY-NH2 [[Gln34]hPP3-36, reference compound] | > 1000 |  |
| H-APLEPVYPGDNATPEQMAQYAADLRRYINTLTRQRY-NH2 [[Thr30, Gln34]hPP] | > 1000 |  |
| CC[C@H](C)[C@H](NC(=O)[C@H](Cc1ccc(O)cc1)NC(=O)[C@H](CCCNC(=N)N)NC(=O)[C@H](CCCNC(=N)N)NC(=O)[C@H](CC(C)C)NC(=O)[C@H](CC(=O)O)NC(=O)[C@H](C)NC(=O)[C@H](C)NC(=O)[C@H](Cc1ccc(O)cc1)NC(=O)[C@H](CCC(N)=O)NC(=O)[C@H](C)NC(=O)[C@H](CCSC)NC(=O)[C@H](CCC(N)=O)NC(=O)[C@H](CCC(=O)O)NC(=O)[C@@H]1CCCN1C(=O)[C@@H](NC(=O)[C@H](C)NC(=O)[C@H](CC(N)=O)NC(=O)[C@H](CC(=O)O)NC(=O)CNC(=O)[C@@H]1CCCN1C(=O)[C@H](Cc1ccc(O)cc1)NC(=O)[C@@H](NC(=O)[C@@H]1CCCN1C(=O)[C@H](CCC(=O)O)NC(=O)[C@H](CC(C)C)NC(=O)[C@@H]1CCCN1C(=O)[C@H](C)N)C(C)C)[C@@H](C)O)C(=O)N[C@@H](CC(N)=O)C(=O)N[C@@H](CCSC)C(=O)N[C@@H](CC(C)C)C(=O)N[C@H](C(=O)N[C@@H](CCCNC(=N)N)C(=O)N[C@@H](CCC(N)=O)C(=O)N[C@@H](CCCNC(=N)N)C(=O)N[C@@H](Cc1ccc(O)cc1)C(N)=O)[C@@H](C)O [[Gln34]hPP] |  | 12 to 13 |

Next, values leading:

| EC50 (human Y1 receptor) [nM] | level at time molar (in vivo) [nM] | Molecule |
| --- | --- | --- |
| > 1000 |  | H-PLEPVYPGDNATPEQMAQYAADLRRYINTITRQRY-NH2 [[Thr30, Ile31, Gln34]hPP2-36] |
| > 1000 |  | H-APLEPVYPGDNATPEQMAQYAADLRRYINTITRQRY-NH2 [[Thr30, Ile31, Gln34]hPP] |
